# Reference: US11124513B2, “Avibactam free acid” (Sandoz AG, priority 2016, dated 2021)
# Counter-ions that a name gives are not always drawn.
# Experiments:
# [1] = Thermogravimetric analysis; format: physicochemical; conditions: up to a temperature of about 130° C.; 10 K/min; crystalline Form 1 (FIG. 4)
# Experimental: Thermogravimetric analysis (TGA) was performed on a Mettler TGA/DSC 1 instrument. The sample (6.30 mg) was heated in a 100 microL aluminum pan closed with an aluminum lid. The lid was automatically pierced at the beginning of the measurement. The sample was heated from 25 to 200° C. at a rate of 10 K/min. Nitrogen (purge rate 50 mL/min) was used as purge gas.
# [2] = Differential scanning calorimetry; format: physicochemical; conditions: 10 K/min; crystalline Form 1 (FIG. 3)
# Experimental: Differential scanning calorimetry was performed on a Mettler Toledo Polymer DSC R instrument. The sample (1.27 mg) was heated in a 40 microL aluminium pan with pierced aluminium lid from 25 to 160° C. at a rate of 10 K/min. Nitrogen (purge rate 50 mL/min) was used as purge gas.
# [3] = Stability against temperature stress (dehydration, form conversion); format: physicochemical
# [4] = system: bacteria; conditions: at clinically relevant doses; reported; cited from earlier work
# [5] = Stability against moisture / hygroscopicity
# [6] = stated in WO 2011/042560 A1; cited from earlier work
# [7] = stated in WO 2011/042560 A1 (page 17); cited from earlier work
SMILES,"weight loss, thermogravimetric analysis [1]",temperature up to which no thermal event is seen in the differential scanning calorimetry curve [2],behaviour under temperature stress [3],antibacterial activity of its own [4],hygroscopicity [5],stability against moisture ([5]; increased relative humidity levels),temperature above which the form dehydrates (to monohydrate form A) ([3]; temperature stress),relative humidity above which the form is particularly stable [6] [%],tendency to lose water and hydrolyze [7]
"NC(=O)[C@@H]1CC[C@@H]2CN1C(=O)N2OS(=O)(=O)O [avibactam free acid, [(2S,5R)-2-carbamoyl-7-oxo-1,6-diazabicylco[3.2.1]octan-6-yl] hydrogen sulfate]",about 0.3 weight %,at least 130 °C,very stable against temperature stress,no antibacterial activity at clinically relevant doses,low hygroscopicity,very stable against moisture,–,–,–
NC(=O)C1CCC2CN1C(=O)N2OS(=O)(=O)[O-].O.[Na+] (stereo not shown) [form A],–,–,dehydrates to the anhydrous form B,–,–,–,–,–,–
NC(=O)[C@@H]1CC[C@@H]2CN1C(=O)N2OS(=O)(=O)[O-].O.O.[Na+] [form E],–,–,–,–,–,–,above 60 °C,> 70,tends to lose water and to hydrolyze
